Results published in PubChem BioAssay (NCI).
“And” between values parts separate entries of the source, which are not always exact repeats. Equal entries are not always repeated.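 Five concentrations, 48 hours, 96-well plates. GI50: concentration for 50% inhibition of growth. Definition used: TGI = concentration required for complete inhibition of growth.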

Experiments:
Test in all cases: NCI anticancer screen, dose series, 48 h
786-0 renal = tested on: 786-0 renal
COLO 205 colon = tested on: COLO 205 colon
HCT-15 colon = tested on: HCT-15 colon
HOP-62 NSCLC = tested on: HOP-62 NSCLC
HOP-92 NSCLC = tested on: HOP-92 NSCLC
LOX IMVI melanoma = tested on: LOX IMVI melanoma
NCI-H226 lung = tested on: NCI-H226 lung
NCI-H522 lung = tested on: NCI-H522 lung
SF-268 CNS = tested on: SF-268 CNS
SF-295 CNS = tested on: SF-295 CNS
SK-OV-3 ovarian = tested on: SK-OV-3 ovarian
SNB-19 CNS = tested on: SNB-19 CNS
T-47D breast = tested on: T-47D breast
UO-31 renal = tested on: UO-31 renal

SMILES	TGI (786-0 renal)	TGI (COLO 205 colon)	TGI (HCT-15 colon)	TGI (HOP-62 NSCLC)	TGI (HOP-92 NSCLC)	TGI (LOX IMVI melanoma)	TGI (NCI-H226 lung)	TGI (NCI-H522 lung)	TGI (SF-268 CNS)	TGI (SF-295 CNS)	TGI (SK-OV-3 ovarian)	TGI (SNB-19 CNS)	TGI (T-47D breast)	TGI (UO-31 renal)	GI50 (HOP-62 NSCLC)
CCN(CC)CCNC(=O)c1cc2cc(NC(=O)c3cc4cc(NC(=O)c5cc6cc(N)ccc6[nH]5)ccc4[nH]3)ccc2[nH]1	> 100 µM	> 100 µM	> 100 µM	> 100 µM	> 100 µM	> 100 µM	> 100 µM	> 100 µM	> 100 µM	> 100 µM	> 100 µM	> 100 µM	> 100 µM	> 100 µM	–
CC(C)NC(=O)OCc1c(COC(=O)NC(C)C)c(-c2cc[n+](COC(=O)C(C)(C)C)cc2)n2c1CCC2	> 100 µM	> 100 µM	> 100 µM	> 100 µM	> 100 µM	> 100 µM	> 100 µM	> 100 µM	> 100 µM	> 100 µM	> 100 µM	> 100 µM	> 100 µM	> 100 µM	–
C=CCSC1=N/C(=C\c2cccs2)C(=O)N1CC=C	> 100 µM	> 100 µM	> 100 µM	> 100 µM	57 µM	> 100 µM	> 100 µM	> 100 µM	> 100 µM	> 100 µM	> 100 µM	> 100 µM	69.3 µM	> 100 µM	–
CCCCCCOc1ccc(C(=O)NO)cc1	16.6 µM	26 µM	16.1 µM	38.4 µM	40 µM	20.7 µM	32.6 µM	19.7 µM	28.7 µM	40.9 µM	60.3 µM	54.8 µM	41.3 µM	20.1 µM	–
CC1=C/C(=N\O)C(C(O)(C(F)(F)F)C(F)(F)F)C(C)(C)C1 (centres undefined)	> 10 µM	> 10 µM	> 10 µM	> 10 µM	> 10 µM	> 10 µM	> 10 µM	> 10 µM	> 10 µM	> 10 µM	> 10 µM	> 10 µM	> 10 µM	> 10 µM	–
Cc1ccc(Nc2c(C#N)[n+]([O-])c3cc(Cl)ccc3[n+]2[O-])cc1	> 100 µM	> 100 µM	> 100 µM	> 100 µM	> 100 µM	> 100 µM	> 100 µM	> 74.8 µM	> 100 µM	> 100 µM	> 100 µM	> 100 µM	> 100 µM	> 100 µM	–
COC(=O)C1OC(O[C@H]2CC[C@]3(C)[C@H]4CC=C5[C@@H]6CC(C)(C)CC[C@]6(C(=O)OC6OCC(O)C(O)C6OC6OC(C)C(OC7OCC(O)C(OC8OCC(O)C(O)C8O)C7O)C(OC7OCC(O)C(O)C7O)C6O)CC[C@@]5(C)[C@]4(C)CC[C@H]3C2(C)C)C(O)C(OC2OCC(O)C(O)C2O)C1O (some centres undefined)	> 100 µM and 16.6 µM	2.97 µM and 3.08 µM	> 100 µM and 35.2 µM	17.8 µM and 23.7 µM	5.25 µM and 7.62 µM	26.5 µM and 21.6 µM	11 µM and 17.8 µM	5.32 µM and 5.78 µM	> 76.2 µM and 19.9 µM	11.5 µM and 17 µM	> 100 µM and 27.8 µM	> 100 µM and 20.1 µM	42.3 µM and 19.2 µM	4.36 µM and 4.14 µM	4.76 µM and 10.9 µM
CN(NC(=O)c1cccs1)C1=NCCCCN1	> 100 µM	> 100 µM	> 100 µM	> 100 µM	> 100 µM	> 100 µM	> 100 µM	> 100 µM	> 100 µM	> 100 µM	> 100 µM	> 100 µM	> 100 µM	> 100 µM	–
O=C(Nc1ccccc1)N(C1=NCC(CI)S1)c1ccc(F)cc1F (centres undefined)	> 100 µM	> 100 µM	> 100 µM	> 100 µM	51.1 µM	35.2 µM	> 100 µM	> 100 µM	> 100 µM	> 100 µM	> 100 µM	> 100 µM	> 100 µM	> 100 µM	–
CCCCCCCCCCCCCCCCOCC(Cl)COP(=O)(O)OP(=O)(O)OCC1OC(n2cc(C)c(=O)[nH]c2=O)CC1O (centres undefined)	> 100 µM	> 100 µM	> 100 µM	> 100 µM	> 100 µM	> 100 µM	80.5 µM	> 100 µM	> 100 µM	> 100 µM	> 100 µM	> 100 µM	> 100 µM	> 100 µM	–
NCCN1C(=O)CN=C(c2ccc(Cl)cc2)c2cc(Cl)ccc21	30.4 µM	38.7 µM	34.7 µM	31.8 µM	39.7 µM	32.4 µM	31 µM	37.3 µM	30.4 µM	> 100 µM	47.6 µM	45.6 µM	59.3 µM	27.3 µM	–
CCOC(=O)CSc1nnc2cc(CN3CCCC3)c(-c3ccc(Cl)cc3)nn12	> 100 µM	> 100 µM	> 100 µM	> 100 µM	> 100 µM	> 100 µM	> 100 µM	> 100 µM	> 100 µM	> 100 µM	> 100 µM	> 100 µM	> 100 µM	> 100 µM	–
